What all share (type): in vivo
Experiment [1] deals with giant foxtail (Setaria faberii). Put plainly: Test A preemergence. To be noted: Setaria faberi, pre-emergence, 240 h; for pest or weed control at 125 g/ha: 125 g ai/ha; for pest or weed control at 500 g/ha: 500 g ai/ha. Summed up:
(§1)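 Compounds were formulated in a non-phytotoxic solvent mixture with surfactant and applied as a preemergence directed soil spray after seeding, or sprayed postemergence over plants 2 to 10 cm tall at the one- to two-leaf stage. Evaluation after about 10 d compared treated with untreated controls, using a scale from 0 (no effect) to 100 (complete control).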

Experiment [2] concerns Galium (catchweed bedstraw, Galium aparine). Put plainly: Test A postemergence. To be noted: Galium, post-emergence, 240 h, postemergence; for pest or weed control at 125 g/ha: 125 g ai/ha. The procedure, abridged: as §1
The test system of another experiment is Kochia (Kochia scoparia). Description: Test A postemergence. To be noted: Bassia scoparia, post-emergence, 240 h, postemergence; for pest or weed control at 125 g/ha: 125 g ai/ha. The procedure, abridged: as §1
The test system of experiment [3] is barnyardgrass (Echinochloa crus-galli). Put plainly: Test A postemergence. To be noted: Echinochloa crus-galli, post-emergence, 240 h; for pest or weed control at 125 g/ha: 125 g ai/ha. The procedure, abridged: as §1
Experiment [4] relates to blackgrass (Alopecurus myosuroides). Description: Test A postemergence. To be noted: Alopecurus myosuroides, post-emergence, 240 h; for pest or weed control at 125 g/ha: 125 g ai/ha. The procedure, abridged: as §1
Another experiment relates to corn (Zea mays). Put plainly: Test A postemergence. To be noted: Zea mays, post-emergence, 240 h. The procedure, abridged:
as §1

The subject of experiment [5] is giant foxtail (Setaria faberii). Put plainly: Test A postemergence. To be noted: Setaria faberi, post-emergence, 240 h, postemergence; for pest or weed control at 125 g/ha: 125 g ai/ha. Summed up:
as §1

The test system of experiment [6] is pigweed (Amaranthus retroflexus). Description: Test A postemergence. To be noted: Amaranthus retroflexus, post-emergence, 240 h, postemergence; for pest or weed control at 125 g/ha: 125 g ai/ha. The procedure, abridged: as §1
For experiment [7], the system named is ragweed (common ragweed, Ambrosia elatior). Put plainly: Test A postemergence. To be noted: Ambrosia artemisiifolia, post-emergence, 240 h, postemergence; for pest or weed control at 125 g/ha: 125 g ai/ha. Summed up:
as §1

Experiment [8] has as its system ryegrass, Italian (Italian ryegrass, Lolium multiflorum). Put plainly: Test A postemergence. To be noted: Lolium multiflorum, post-emergence, 240 h, postemergence; for pest or weed control at 125 g/ha: 125 g ai/ha. Summed up: as §1
Experiment [9] deals with wheat (Triticum aestivum). Description: Test A postemergence. To be noted: Triticum aestivum, post-emergence, 240 h, postemergence; for plant injury at 125 g/ha: 125 g ai/ha. The procedure, abridged:
as §1

The test system of experiment [10] is barnyardgrass (Echinochloa crus-galli). Put plainly: Test B flooded paddy test. To be noted: Echinochloa crus-galli, 250 g ai/ha, Flood, read-out: Barnyardgrass plant response rating. The procedure, abridged: (§2)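 2-leaf plants; pots flooded 3 cm over soil; cpd added to paddy water; depth held; greenhouse 13–15 d; visual rating vs controls, 0 = no effect, 100 = complete control.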

For experiment [11], the system named is ducksalad (Heteranthera limosa). Description: Test B flooded paddy test. To be noted: Heteranthera limosa, 250 g ai/ha, Flood, read-out: Ducksalad plant response rating. Summed up: as §2
The next experiment concerns rice (Oryra sativa). Description: Test B flooded paddy test. To be noted: Oryza sativa, 250 g ai/ha, Flood, read-out: Rice plant response rating. The procedure, abridged:
as §2

In experiment [12] the test system is sedge, umbrella (small-flower umbrella sedge, Cyperus difformis). Description: Test B flooded paddy test. To be noted: Cyperus difformis, 250 g ai/ha, Flood, read-out: Sedge, Umbrella plant response rating. The procedure, abridged:
as §2

The mark [13] stands for this setting: 0 to 100 scale where 0 is no effect and 100 is complete control.
Where [14] appears, read: scale of 0 to 100 where 0 is no effect and 100 is complete control.

Each structure is given as a SMILES string. Where two headings read alike, the source gives them in different places.

Regarding `O=C(Nc1ccccc1F)[C@H]1C(=O)N(C2CC2)CC[C@@H]1c1ccccc1` [Compound 1031], the pest or weed control at 125 g/ha in experiment [1] (Preemergence, visual injury rating after approximately 10 d, read-out: Foxtail, Giant plant response rating (0 to 100 scale, 0 is no effect, 100 is complete control)) came out at 0%; in experiment [2] (visual injury on 0 to 100 scale (0 no effect, 100 complete control), approx. 10 d, read-out: Galium plant response rating) it was 0%; in the experiment with Kochia (Kochia scoparia) (visual injury on 0 to 100 scale (0 no effect, 100 complete control), approx. 10 d, read-out: Kochia plant response rating), 0%; in experiment [3] (Postemergence, visual injury after approximately 10 d, 0 to 100 scale where 0 is no effect and 100 is complete control, read-out: Plant response rating, Barnyardgrass), 0%; in experiment [4] (Postemergence, visual injury after approximately 10 d, 0 to 100 scale where 0 is no effect and 100 is complete control, read-out: Plant response rating, Blackgrass), 0%; in experiment [5] (visual injury on 0 to 100 scale (0 no effect, 100 complete control), approx. 10 d, read-out: Foxtail, Giant plant response rating) it was 0%. In addition, the pest or weed control at 125 g/ha in experiment [6] (visual injury on 0 to 100 scale (0 no effect, 100 complete control), approx. 10 d, read-out: Pigweed plant response rating) is 0%; in experiment [7] (visual injury on 0 to 100 scale (0 no effect, 100 complete control), approx. 10 d, read-out: Ragweed plant response rating) it was 0%; in experiment [8] (visual injury on 0 to 100 scale (0 no effect, 100 complete control), approx. 10 d, read-out: Ryegrass, Italian plant response rating), 0%. For the same compound, the pest or weed control at 500 g/ha in [1] (preemergence, visual injury rating about 10 d after treatment, 0 to 100 scale (0 no effect, 100 complete control), read-out: Foxtail, Giant plant response rating) worked out at 0%; in [2] (500 g ai/ha, visual injury, 0 to 100 scale (0 no effect, 100 complete control), approx. 10 d, read-out: Plant response rating, Galium), 0%; in the experiment on Kochia (Kochia scoparia) (500 g ai/ha, visual injury, 0 to 100 scale (0 no effect, 100 complete control), approx. 10 d, read-out: Plant response rating, Kochia), 0%; in [3] (500 g ai/ha, postemergence, visual injury, 0 to 100 scale (0 no effect, 100 complete control), approx. 10 d, read-out: Plant response rating, Barnyardgrass), 0%; in experiment [4] (500 g ai/ha, postemergence, visual injury, 0 to 100 scale (0 no effect, 100 complete control), approx. 10 d, read-out: Plant response rating, Blackgrass), 0%; in experiment [5] (500 g ai/ha, visual injury, 0 to 100 scale (0 no effect, 100 complete control), approx. 10 d, read-out: Plant response rating, Foxtail, Giant) it was 0%. For the same compound, the pest or weed control at 500 g/ha in experiment [6] (500 g ai/ha, visual injury, 0 to 100 scale (0 no effect, 100 complete control), approx. 10 d, read-out: Plant response rating, Pigweed) worked out at 0%; in [7] (500 g ai/ha, visual injury, 0 to 100 scale (0 no effect, 100 complete control), approx. 10 d, read-out: Plant response rating, Ragweed), 0%; in [8] (500 g ai/ha, visual injury, 0 to 100 scale (0 no effect, 100 complete control), approx. 10 d, read-out: Plant response rating, Ryegrass, Italian), 0%. Also, the Corn plant response rating (crop injury, 0 = no effect, 100 = complete kill) at 125 g/ha in the experiment with corn (Zea mays) (125 g ai/ha, Postemergence, visual injury after approximately 10 d, 0 to 100 scale where 0 is no effect and 100 is complete control) amounted to 0%. The Corn plant response rating (crop injury, 0 = no effect, 100 = complete kill) at 500 g/ha in the experiment with corn (Zea mays) (500 g ai/ha, postemergence, visual injury, 0 to 100 scale (0 no effect, 100 complete control), approx. 10 d) came to 0%. Further, the plant injury at 125 g/ha in experiment [9] (visual injury on 0 to 100 scale (0 no effect, 100 complete control), approx. 10 d, read-out: Wheat plant response rating) was 0%. Also, the plant injury at 500 g/ha in experiment [9] (500 g ai/ha, visual injury, 0 to 100 scale (0 no effect, 100 complete control), approx. 10 d, read-out: Plant response rating, Wheat) was 0%. Also, the pest or weed control at 250 g/ha (in [10] (setting [13]); in experiment [11] (setting [13]); in the experiment on rice (Oryra sativa) (setting [13]); in [12] (setting [13])) was 0% throughout.

As to `COc1c(F)ccc([C@H]2CNC(=O)[C@@H]2C(=O)Nc2ccccc2C(F)(F)F)c1Cl` [Compound 891], the pest or weed control at 125 g/ha in [1] (preemergence, 0 to 100 scale where 0 is no effect and 100 is complete control, read-out: Foxtail, Giant plant response rating) was 80%; in [2] (visual injury rating after approximately 10 d, read-out: Galium plant response rating (0 to 100 scale, 0 no effect, 100 complete control)) it was 30%; in the experiment on Kochia (Kochia scoparia) (visual injury rating after approximately 10 d, read-out: Kochia plant response rating (0 to 100 scale, 0 no effect, 100 complete control)), 0%; in experiment [3] (postemergence, visual injury rating after approximately 10 d, read-out: Barnyardgrass plant response rating (0 to 100 scale, 0 no effect, 100 complete control)), 50%; in [4] (postemergence, visual injury rating after approximately 10 d, read-out: Blackgrass plant response rating (0 to 100 scale, 0 no effect, 100 complete control)) it was 0%; in [5] (visual injury rating after approximately 10 d, read-out: Foxtail, Giant plant response rating (0 to 100 scale, 0 no effect, 100 complete control)) it was 40%. Besides, the pest or weed control at 125 g/ha amounted to 0% in experiment [6] (visual injury rating after approximately 10 d, read-out: Pigweed plant response rating (0 to 100 scale, 0 no effect, 100 complete control)); 0% in experiment [7] (visual injury rating after approximately 10 d, read-out: Ragweed plant response rating (0 to 100 scale, 0 no effect, 100 complete control)); 0% in experiment [8] (visual injury rating after approximately 10 d, read-out: Ryegrass, Italian plant response rating (0 to 100 scale, 0 no effect, 100 complete control)). In experiment [1] (Preemergence, visual injury vs untreated controls after approximately 10 d, read-out: Foxtail, Giant plant response rating (0 to 100 scale where 0 is no effect and 100 is complete control)), the pest or weed control at 500 g/ha turned out to be 90%. Besides, the plant injury at 125 g/ha in the experiment with corn (Zea mays) (125 g ai/ha, postemergence, visual injury rating after approximately 10 d, read-out: Corn plant response rating (0 to 100 scale, 0 no effect, 100 complete control)) turned out to be 20%; in experiment [9] (visual injury rating after approximately 10 d, read-out: Wheat plant response rating (0 to 100 scale, 0 no effect, 100 complete control)) it was 0%. Further, the pest or weed control at 250 g/ha in experiment [10] (setting [14]) came out at 0%; in [11] (setting [14]), 100%; with rice (Oryra sativa) (setting [14]), 20%; in [12] (setting [14]), 0%.
